Patent publication US5593970A, “Heterocyclic anthracycline analogs” (priority 1994, dated 1997)
Values joined by “and” are separate entries in the source; they are usually repeats but may differ in a detail not shown here. Equal entries are not always repeated. Structures can show the parent of a compound that is named as a salt. Where two headings read alike, the source gives them in different places.

Legend:
Test in all cases: Microculture tetrazolium assay
Type in all cases: cell-based
[1] = test system: LOX
[2] = test system: SKVLB; conditions: for IC50: SKVLB; for VLB/OV3: IC50 ratio SKVLB/SKOV3
[3] = test system: SKOV3
[4] = test system: HT29
[5] = Homo sapiens, SK-OV-3, SKOV3, read-out: IC50
[6] = Homo sapiens, HT-29, HT29, read-out: IC50
[7] = SKOV3, hydrochloride, read-out: IC50
[8] = HT29, hydrochloride, read-out: IC50

| Structure (SMILES) | IC50 ([2]; read-out: IC50) | IC50 [3, 5] | IC50 [4, 6] | VLB/OV3 [2] | other results |
| --- | --- | --- | --- | --- | --- |
| C[C@@H]1O[C@@H](O[C@@H]2O[C@@H](c3ccccc3)CC3=C2C(=O)c2cc4ccccc4c(O)c2C3=O)C[C@H](N)[C@@H]1O [BCH-2013] | 4.64 µM |  |  |  | IC50 ([1]; read-out: IC50): 554 nM |
| C[C@@H]1O[C@@H](O[C@@H]2O[C@@H](C(=O)OC(C)(C)C)CC3=C2C(=O)c2cc4ccccc4c(O)c2C3=O)C[C@H](NC(=O)C(F)(F)F)[C@@H]1O [BCH-2850] | 5.2 µM | 3500 nM | 5100 nM | 1.49 |  |
| COP(=O)(CC(=O)[C@@H]1CC2=C(C(=O)c3cc4ccccc4c(O)c3C2=O)[C@@H](O[C@H]2C[C@H](NC(=O)C(F)(F)F)[C@H](O)[C@H](C)O2)O1)OC [BCH-1678] |  |  |  | 2.54 | IC50 [1]: 3770 nM; IC50 ([3]; Homo sapiens, SK-OV-3, SKOV3): 5360 nM; IC50 ([4]; Homo sapiens, HT-29, HT29): 5650 nM; IC50 [2]: 13.6 µM |
| CC(=O)O[C@@H]1[C@H](C)O[C@@H](O[C@H]2S[C@H](C(C)=O)CC3=C2C(=O)c2cc4ccccc4c(O)c2C3=O)C[C@@H]1OC(C)=O [BCH-1671] |  |  |  | 0.82 and 1.00 |  |
| CC(C)[C@H]1Cc2c(O)c3c(c(O)c2[C@H](O[C@H]2C[C@H](N4CCOCC4C#N)[C@H](O)[C@H](C)O2)O1)C(=O)c1ccccc1C3=O (stereo partly drawn) [BCH-2195, (1'S,1S,3R)-5,12-dihydroxy-6,11-dioxo-3-isopropyl-1-(2',3',6'-trideoxy-3'(3-cyano-4-morpholinyl)-L-lyxohexopyranose)-3,4,5,12-tetrahydroanthraceno-[2,3-c]-pyran] |  |  |  | 2.22 | IC50 ([3]; Homo sapiens, SK-OV-3, SKOV3): 4550 nM; IC50 ([4]; Homo sapiens, HT-29, HT29): 3400 nM; IC50 [2]: 10.1 µM |
| CC(=O)C1Cc2c(O)c3c(c(O)c2C(O[C@H]2C[C@H](N4CCOCC4)[C@H](O)[C@H](C)O2)O1)C(=O)c1ccccc1C3=O (mixture of isomers) [BCH-1191, (1'S,1R,3S) and (1'S,1S,3R)-Methyl(1-(2',3',6'-trideoxy-3'-morpholino-L-lyxohexopyranose)-6,11-dioxo-5,12-dihydroxy-3,4,6,11-tetrahydroanthraceno[2,3-c]pyran-3-yl)ketone] |  |  |  | 3.57 | IC50 [2]: 1.05 µM |
| C[C@@H]1O[C@@H](O[C@H]2O[C@H](C(=O)C(C)(C)C)CC3=C2C(=O)c2cc4ccccc4c(O)c2C3=O)C[C@H](NC(=O)C(F)(F)F)[C@@H]1O (mixture of isomers) [BCH-2198, (1'S, 1S,3S) and (1'S,1R, 3R)-tert-butyl-(6-hydroxy-1-(2',3',6'-trideoxy-3'-trifluoroacetamido-4-hydroxy-L-lyxohexopyranose)-5,12-dioxo-3,4,5,12-tetrahydroanthraceno-[2,3-c]-pyran-3-yl)-ketone] | 4.15 µM | 4400 nM | 2410 nM | 0.94 |  |
| CC[C@H]1CC2=C(C(=O)c3cc4ccccc4c(O)c3C2=O)[C@H](O[C@H]2C[C@H](NC(=O)C(F)(F)F)[C@H](O)[C@H](C)O2)O1 [BCH-1187, (1'S,1S,3S)-5,12-dioxo-3-ethyl-6-hydroxy-1-(2',3',6'-trideoxy-3'-trifluoroacetamido-4'-hydroxy-L-lyxohexopyranose)-3,4,5,12-tetrahydroanthraceno[2,3-c]pyran] | 3.86 µM and 3.88 µM | 1200 nM | 1420 nM | 3.22 and 2.10 | IC50 ([3]; SKOV3, read-out: IC50): 1850 nM; IC50 ([4]; HT29, read-out: IC50): 1980 nM |
| C=CC[C@@H]1CC2=C(C(=O)c3cc4ccccc4c(O)c3C2=O)[C@@H](O[C@H]2C[C@H](NC(=O)C(F)(F)F)[C@H](O)[C@H](C)O2)O1 [BCH-1687, (1S,1R,3R)-3-(6-hydroxy-1-(2',3',6'-trideoxy-3'-trifluoroacetamido-4'-hydroxy-L-lyxohexopyranose)-5,12-dioxo-3,4,5,12-tetrahydroanthraceno-[2,3-c]pyran-3-yl)propene] | 1.86 µM | 791 nM | 1240 nM | 2.35 | IC50 ([1]; read-out: IC50): 706 nM |
| CC(C)[C@H]1Cc2c(O)c3c(c(O)c2[C@H](O[C@H]2C[C@H](N4CCOCC4)[C@H](O)[C@H](C)O2)O1)C(=O)c1ccccc1C3=O [BCH-2190, (1'S,1S,3R)-5,12-dihydroxy-6,11-dioxo-3-isopropyl-1-(2',3',6-trideoxy-3'-(4-morpholinyl)-L-lyxohexopyranose)-3,4,5,12-tetrahydroanthraceno-[2,3-c]-pyran] | 3.18 µM | 1650 nM | 3710 nM | 1.93 |  |
| CC(=O)[C@H]1CC2=C(C(=O)c3cc4ccccc4c(O)c3C2=O)[C@H](O[C@H]2C[C@H](N)[C@H](O)[C@H](C)O2)O1 [BCH-1127] |  |  |  | 1.87 and 3.24 |  |
| CC(C)[C@H]1Cc2c(O)c3c(c(O)c2[C@H](O[C@H]2C[C@H](N4CCOCC4)[C@H](O)[C@H](C)O2)O1)C(=O)c1ccccc1C3=O [BCH-2192, (1'S,1S,3R)-5,12-dihydroxy-6,11-dioxo-3-isopropyl-1-(2',3',6'-trideoxy-3'(4-morpholinyl)-L-lyxohexopyranose)-3,4,5,12-tetrahydroanthraceno-[2,3-c]-pyran hydrochloride] |  |  |  |  | IC50 [3, 7]: 1930 nM; IC50 [4, 8]: 4650 nM; VLB/OV3 ([2]; hydrochloride): 1.18; IC50 ([2]; hydrochloride, read-out: IC50): 2.28 µM |
| C[C@@H]1O[C@@H](O[C@@H]2O[C@@H](C(=O)C(C)(C)C)CC3=C2C(=O)c2cc4ccccc4c(O)c2C3=O)C[C@H](NC(=O)C(F)(F)F)[C@@H]1O (mixture of isomers) [BCH-2197, (1'S, 1S,3S) and (1'S,1R, 3R)-tert-butyl-(6-hydroxy-1-(2',3',6'-trideoxy-3'-trifluoroacetamido-4-hydroxy-L-lyxohexopyranose)-5,12-dioxo-3,4,5,12-tetrahydroanthraceno-[2,3-c]-pyran-3-yl)-ketone] | 3.02 µM | 2770 nM | 520 nM | 1.09 |  |

Second part, led by results:

| IC50 ([2]; read-out: IC50) | IC50 [3, 5] | IC50 [4, 6] | Structure (SMILES) | VLB/OV3 [2] | other results |
| --- | --- | --- | --- | --- | --- |
| 53.2 µM | 810 nM | 1930 nM | CC(=O)[C@@H]1Cc2c(O)c3c(c(O)c2[C@@H](O[C@H]2O[C@H](CO)[C@@H](O)[C@H](O)[C@H]2N)O1)C(=O)c1ccccc1C3=O [BCH-1685, (1'R, 1R,3S)-3-aceto-5,12-dihydroxy-1(2-deoxy-2-amino-D-glucopyranose)-6,11-dioxo-3,4,6,11-tetrahydro-1H-anthra-[2,3-c]pyran] | 65.68 | IC50 ([1]; read-out: IC50): 683 nM |
| > 100 µM | 24700 nM | 25800 nM | CC(NC(=O)C(F)(F)F)C1Cc2c(O)c3c(c(O)c2C(O[C@H]2C[C@H](O)[C@H](O)[C@H](C)O2)O1)C(=O)c1ccccc1C3=O (stereo partly drawn) [BCH-1682] |  | IC50 ([1]; read-out: IC50): 16400 nM |
|  | 268 nM | 147 nM | C=C(C)[C@@H]1Cc2c(O)c3c(c(O)c2[C@@H](O[C@H]2C[C@H](N)[C@H](O)[C@H](C)O2)O1)C(=O)c1ccccc1C3=O [BCH-2189, (1'S,1R,3S)-5,12-dihydroxy-6,11-dioxo-3-isopropenyl-1-(2',3',6'-trideoxy-3'-amino-L-lyxohexopyranose)-3,4,5,12-tetrahydroanthraceno-[2,3-c]-pyran hydrochloride] |  | IC50 [3, 7]: 342 nM; IC50 [4, 8]: 144 nM; VLB/OV3 ([2]; hydrochloride): 0.39 and 0.73 |
|  | 148 nM |  | C=CC[C@H]1Cc2c(O)c3c(c(O)c2[C@H](O[C@H]2C[C@H](N)[C@H](O)[C@H](C)O2)O1)C(=O)c1ccccc1C3=O [BCH-2106, (1'S,1S,3S)-3-(5,12-dihydroxy-1-(2',3',6'-trideoxy-3'-amino-4'-hydroxy-L-lyxohexopyranose)-6,11-dioxo-3,4,5,12-tetrahydroanthraceno-[2,3-c]pyran-3-yl)propene hydrochloride] |  |  |
| 11.4 µM | 3070 nM | 1350 nM | CC(N)C1Cc2c(O)c3c(c(O)c2C(O[C@H]2C[C@H](O)[C@H](O)[C@H](C)O2)O1)C(=O)c1ccccc1C3=O (stereo partly drawn) [BCH-1683, (1'S ,1S,3R)-3(aminoethyl)-5,12-dihydroxyl-1(2,3,6-trideoxy-3,4-dihydroxy-L-lyxohexopyranose)-6,11-dioxo-3,4,6,11-tetrahydro-1H-anthra[2,3-c]pyran hydrochloride] | 3.71 | IC50 ([1]; read-out: IC50): 2290 nM |
| 0.198 µM | 374 nM | 211 nM | C=C(C)[C@H]1Cc2c(O)c3c(c(O)c2[C@H](O[C@H]2C[C@H](N)[C@H](O)[C@H](C)O2)O1)C(=O)c1ccccc1C3=O [BCH-2188, (1'S,1S,3R)-5,12-dihydroxy-6,11-dioxo-3-isopropenyl-1-(2',3',6'-trideoxy-3'-amino-L-lyxohexopyranose)-3,4,5,12-tetrahydroanthraceno-[2,3-c]-pyran hydrochloride] |  | IC50 [3, 7]: 640 nM; IC50 [4, 8]: 310 nM; VLB/OV3 ([2]; hydrochloride): 0.53 and 0.46; IC50 ([2]; hydrochloride, read-out: IC50): 0.297 µM |
| 11 µM | 1670 nM | 3530 nM | CCC1Cc2c(O)c3c(c(O)c2C(C[C@H]2C[C@H](N)[C@H](O)[C@H](C)O2)O1)C(=O)c1ccccc1C3=O (mixture of isomers) [BCH-2817, (1'S,2'R, 3'S,5'R, 1S,3R) and (1'S,2'R, 3'S,5'R, 1R, 3S)-1-(3-amino-2-hydroxy-1-methyltetrahydropyran-5-yl)methyl-3-ethyl-5,12-dihydroxy-6,11-dioxo-3,4,6,11-tetrahydroanthraceno-[2,3-c]pyran hydrochloride] | 6.59 |  |
| 0.573 µM |  | 170 nM | CC(=O)C1Cc2c(O)c3c(c(O)c2C(O[C@H]2C[C@H](N)[C@H](O)[C@H](C)O2)O1)C(=O)c1ccccc1C3=O (mixture of isomers) [BCH-1130, (1'S,1S,3R) and (1'S,1R,3S)-Methyl-[5,12-dihydroxy-1-(2',3',6'-trideoxy-3'-amino-4'-hydroxy-L-lyxohexopyranose)-6,11-dioxo-3,4,6,11-tetrahydroanthraceno-(2,3-C)pyran-3-yl]ketone hydrochloride] |  | IC50 [4, 8]: 127 nM; VLB/OV3 ([2]; hydrochloride): 21.87 and 19.04; IC50 ([2]; hydrochloride, read-out: IC50): 1.03 µM |
|  |  | 5280 nM | CC(=O)[C@H]1Cc2c(O)c3c(c(O)c2[C@H](O[C@@H]2O[C@@H](C)[C@@H](O)[C@@H](O)C2I)O1)C(=O)c1ccccc1C3=O (stereo partly drawn) [BCH-1675] |  | IC50 ([1]; read-out: IC50): 1180 nM |
